Here are results for two compounds from patent publication US5654116A, “Hologram” (priority 1993, dated 1997).

The nature of data set [1]: Toxicity of adhesive ingredients, LD 50 (Table 1). The data set is classed as in vivo. Conditions: ingredient of the adhesive of Example 5, Table 1.
Data set [2] is described as follows: Skin irritativeness, SPI value (skin irritation value of epoxy). Conditions: for Toxicity Skin Irritativeness (SPI · %): ingredient of the adhesive of Example 5, Table 1.

With “hydrogenated bisphenol A type epoxy [alicyclic epoxy]”, the “Toxicity LD 50” value in data set [1] amounted to 3900 mg/kg. Also, the “Toxicity Skin Irritativeness (SPI · %)” value in data set [2] is on record as 3 SPI · %.

For `O=C1OC(=O)C2CC=CCC12` (stereo not shown) [alicyclic acid anhydride II, Tetrahydrophthalic anhydride], the “Toxicity Skin Irritativeness (SPI · %)” value in data set [2] stood at 3 SPI · %. In data set [2] (result in words), the skin irritativeness entry is “low skin irritativeness”.
